Measured values: paper PMC4708007 (Bioscience Reports, 2015)

Molecular target: T1, FtRelA (Francisella tularensis, UniProt Q5NEV0)
T1 construct: gene relA
Assay: biochemical

T1 sequence (Q5NEV0 1-647 limits assumed): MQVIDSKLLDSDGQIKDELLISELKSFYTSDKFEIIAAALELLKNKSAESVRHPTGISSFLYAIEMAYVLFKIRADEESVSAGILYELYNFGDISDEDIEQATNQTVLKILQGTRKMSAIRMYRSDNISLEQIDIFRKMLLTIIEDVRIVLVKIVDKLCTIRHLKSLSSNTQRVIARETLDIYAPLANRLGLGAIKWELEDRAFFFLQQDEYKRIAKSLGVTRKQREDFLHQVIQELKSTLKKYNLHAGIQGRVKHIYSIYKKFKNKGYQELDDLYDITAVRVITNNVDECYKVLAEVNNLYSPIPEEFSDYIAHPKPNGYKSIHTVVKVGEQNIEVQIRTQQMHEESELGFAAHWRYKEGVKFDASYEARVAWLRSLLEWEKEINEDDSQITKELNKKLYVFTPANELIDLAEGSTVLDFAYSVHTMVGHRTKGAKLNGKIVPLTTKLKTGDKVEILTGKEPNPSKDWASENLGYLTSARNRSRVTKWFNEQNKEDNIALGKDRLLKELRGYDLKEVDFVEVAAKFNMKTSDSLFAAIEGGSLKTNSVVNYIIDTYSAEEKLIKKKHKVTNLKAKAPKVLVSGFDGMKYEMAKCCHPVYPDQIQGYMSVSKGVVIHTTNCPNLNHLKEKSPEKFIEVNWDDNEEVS

SMILES: Nc1nc2c(ncn2[C@@H]2O[C@H](COP(=O)(O)OP(=O)(O)O)[C@@H](OP(=O)(O)OP(=O)(O)O)[C@H]2O)c(=O)[nH]1 [ppGpp]
- EC50: 60 ± 1.9 µM
